Read-outs that look alike come from different tables or passages of the source.
How the values were obtained:
[1] = test system: human ES motor neurons carrying the ALS-causing SOD1^A4V mutation; assay: cells; type: cell-based; conditions: 72 h, 72 h; for EC50 / Emax: CPA 33 μM; for viability at 1 µM: CPA (33 μM) + compound (1 μM), read-out: Motor Neuron Survival, % untreated; for Emax: read-out: Emax (MN survival % untreated)
Method: Next, survival assays were performed with all the analogs at once to generate a low-variability dataset. All compounds were evaluated at concentrations ranging from 0.1-3.0 μM (five-point dilution) in three technical replicates and two biological replicates.

[2] = target: T1, MLK1/MAP3K9 (Homo sapiens, UniProt P80192); assay: Radiolabeled ATP kinase assay (Reaction Biology Corp.), MLK1; type: biochemical; conditions: [Cmpd] 0.1 μM, 10 μM ATP
T1 construct: purchased Reaction Biology Corp
T1 sequence (P80192 whole entry): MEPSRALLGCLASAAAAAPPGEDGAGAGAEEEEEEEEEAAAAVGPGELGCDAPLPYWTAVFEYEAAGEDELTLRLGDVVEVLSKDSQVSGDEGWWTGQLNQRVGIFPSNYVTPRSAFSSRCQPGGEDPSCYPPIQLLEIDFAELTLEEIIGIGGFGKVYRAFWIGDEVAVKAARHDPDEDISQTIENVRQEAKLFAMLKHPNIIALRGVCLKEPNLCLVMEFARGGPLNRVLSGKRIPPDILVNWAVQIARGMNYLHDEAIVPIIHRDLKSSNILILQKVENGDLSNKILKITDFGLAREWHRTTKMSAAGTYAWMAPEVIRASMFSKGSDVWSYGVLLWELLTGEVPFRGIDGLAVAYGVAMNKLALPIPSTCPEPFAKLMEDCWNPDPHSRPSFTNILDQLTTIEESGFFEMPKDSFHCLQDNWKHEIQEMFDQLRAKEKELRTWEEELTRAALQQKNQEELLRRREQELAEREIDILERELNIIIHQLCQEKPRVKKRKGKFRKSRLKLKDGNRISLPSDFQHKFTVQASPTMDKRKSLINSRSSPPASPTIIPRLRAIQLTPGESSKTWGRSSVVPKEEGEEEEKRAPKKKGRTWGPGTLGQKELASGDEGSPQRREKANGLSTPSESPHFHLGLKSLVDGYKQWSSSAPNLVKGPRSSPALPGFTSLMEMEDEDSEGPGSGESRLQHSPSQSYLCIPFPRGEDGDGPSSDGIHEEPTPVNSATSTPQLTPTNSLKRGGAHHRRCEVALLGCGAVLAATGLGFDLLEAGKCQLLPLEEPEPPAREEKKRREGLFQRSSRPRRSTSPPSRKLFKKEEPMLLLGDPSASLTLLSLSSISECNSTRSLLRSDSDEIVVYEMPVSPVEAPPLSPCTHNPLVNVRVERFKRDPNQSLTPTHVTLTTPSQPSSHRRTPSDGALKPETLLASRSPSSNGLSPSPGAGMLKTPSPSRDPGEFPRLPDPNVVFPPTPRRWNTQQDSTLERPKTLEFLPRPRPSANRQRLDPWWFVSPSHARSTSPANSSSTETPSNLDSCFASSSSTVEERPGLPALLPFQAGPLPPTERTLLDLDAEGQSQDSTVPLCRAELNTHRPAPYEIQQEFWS
Method: (§1) Meanwhile, the same analogs were analyzed in a radiolabeled ATP assay (10 μM ATP; Reaction Biology Corp.) to compare the extent to which they could inhibit the activity of HGK, MLK1, or MLK3 in a cell-free environment (Table S3 and S4).

[3] = target: T2, MLK3/MAP3K11 (Homo sapiens, UniProt Q16584); assay: Radiolabeled ATP kinase assay (Reaction Biology Corp.), MLK3; type: biochemical; conditions: [Cmpd] 0.1 μM; 10 μM ATP
T2 construct: purchased Reaction Biology Corp
T2 sequence (Q16584 whole entry): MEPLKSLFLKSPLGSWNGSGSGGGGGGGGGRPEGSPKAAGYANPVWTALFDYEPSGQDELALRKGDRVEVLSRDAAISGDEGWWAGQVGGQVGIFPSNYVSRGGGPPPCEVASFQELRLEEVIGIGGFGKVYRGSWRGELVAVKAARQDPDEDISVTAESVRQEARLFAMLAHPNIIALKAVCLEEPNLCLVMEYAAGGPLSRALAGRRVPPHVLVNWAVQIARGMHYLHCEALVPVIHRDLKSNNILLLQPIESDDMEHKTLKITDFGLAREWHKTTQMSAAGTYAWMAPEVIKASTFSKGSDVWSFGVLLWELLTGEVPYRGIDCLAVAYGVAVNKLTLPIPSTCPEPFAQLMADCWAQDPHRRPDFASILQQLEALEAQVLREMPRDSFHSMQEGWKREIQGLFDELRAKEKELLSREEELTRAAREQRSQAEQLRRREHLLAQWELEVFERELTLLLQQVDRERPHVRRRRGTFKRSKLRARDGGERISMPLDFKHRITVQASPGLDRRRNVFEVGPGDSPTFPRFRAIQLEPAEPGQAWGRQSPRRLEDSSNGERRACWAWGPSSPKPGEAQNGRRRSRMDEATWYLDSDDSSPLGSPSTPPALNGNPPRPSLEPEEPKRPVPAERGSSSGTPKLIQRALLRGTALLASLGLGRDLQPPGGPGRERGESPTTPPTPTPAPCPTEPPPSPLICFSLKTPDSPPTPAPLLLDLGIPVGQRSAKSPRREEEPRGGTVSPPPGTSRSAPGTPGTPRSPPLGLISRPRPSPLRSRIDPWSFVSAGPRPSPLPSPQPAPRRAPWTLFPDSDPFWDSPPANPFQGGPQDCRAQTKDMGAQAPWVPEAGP
Method: as §1

[4] = target: HGK/MAP4K4 (Homo sapiens, UniProt O95819); assay: Radiolabeled ATP kinase assay (Reaction Biology Corp.), HGK; type: biochemical; design: purchased Reaction Biology Corp; conditions: 10 μM ATP, read-out: % Enzyme Activity (relative to DMSO controls), HGK/MAP4K4, Data 1; for remaining activity at 0.025 µM: [Cmpd] 0.025 μM; for remaining activity at 0.1 µM: [Cmpd] 0.1 μM
Sequence of HGK/MAP4K4 (O95819 whole entry): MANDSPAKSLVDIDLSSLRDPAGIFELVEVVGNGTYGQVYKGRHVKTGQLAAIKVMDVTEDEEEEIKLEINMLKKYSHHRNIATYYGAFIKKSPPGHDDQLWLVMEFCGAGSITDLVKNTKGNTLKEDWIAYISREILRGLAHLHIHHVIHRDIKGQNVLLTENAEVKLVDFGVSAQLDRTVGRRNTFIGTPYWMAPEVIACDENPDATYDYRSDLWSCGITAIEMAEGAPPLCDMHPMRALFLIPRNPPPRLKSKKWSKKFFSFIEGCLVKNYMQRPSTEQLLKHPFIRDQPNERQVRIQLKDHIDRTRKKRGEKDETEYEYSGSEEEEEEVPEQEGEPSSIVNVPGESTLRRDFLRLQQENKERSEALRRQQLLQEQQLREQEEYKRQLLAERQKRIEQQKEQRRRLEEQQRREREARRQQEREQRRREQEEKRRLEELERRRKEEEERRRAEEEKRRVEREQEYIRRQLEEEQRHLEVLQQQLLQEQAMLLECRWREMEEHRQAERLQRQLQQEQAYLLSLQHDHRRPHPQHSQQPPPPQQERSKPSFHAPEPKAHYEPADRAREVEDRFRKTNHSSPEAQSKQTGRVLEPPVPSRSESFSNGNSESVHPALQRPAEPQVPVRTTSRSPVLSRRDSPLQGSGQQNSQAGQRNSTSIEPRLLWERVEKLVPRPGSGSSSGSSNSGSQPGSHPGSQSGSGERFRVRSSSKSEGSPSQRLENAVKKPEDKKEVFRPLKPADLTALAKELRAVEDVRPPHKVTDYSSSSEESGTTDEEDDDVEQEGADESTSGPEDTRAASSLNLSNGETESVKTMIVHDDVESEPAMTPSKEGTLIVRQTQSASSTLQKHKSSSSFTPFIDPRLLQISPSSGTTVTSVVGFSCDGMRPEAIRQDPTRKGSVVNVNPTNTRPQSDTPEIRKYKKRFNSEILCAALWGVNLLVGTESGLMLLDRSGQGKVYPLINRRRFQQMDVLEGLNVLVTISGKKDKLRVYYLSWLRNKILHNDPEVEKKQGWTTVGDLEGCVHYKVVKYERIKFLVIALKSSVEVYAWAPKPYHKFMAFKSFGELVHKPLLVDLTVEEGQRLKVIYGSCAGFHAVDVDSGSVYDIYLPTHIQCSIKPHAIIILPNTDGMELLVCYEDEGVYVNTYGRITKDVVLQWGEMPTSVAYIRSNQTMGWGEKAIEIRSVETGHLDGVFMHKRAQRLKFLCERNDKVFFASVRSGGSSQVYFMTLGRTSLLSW
Method: as §1

[5] = Homo sapiens, Neuron, read-out: EC50
[6] = read-out: % Enzyme Activity Remaining (relative to DMSO controls), MLK1/MAP3K9, Data 1
[7] = read-out: % Enzyme Activity Remaining (relative to DMSO controls), MLK1/MAP3K9, Data 2

CN1CCN(Cc2ccc(-c3cnc4[nH]cc(-c5ccc6[nH]ncc6c5)c4c3)cc2)CC1 [Compound 7v, 5-(5-(4-((4-Methylpiperazin-1-yl)methyl)phenyl)-1H-pyrrolo[2,3-b]pyridin-3-yl)-1H-indazole]
EC50 [1, 5]: 143 nM | viability at 1 µM ([1]; Homo sapiens, Neuron): 115% | Emax ([1]; Homo sapiens, Neuron): 128% | remaining activity at 0.1 µM [2, 6]: 43% | remaining activity at 0.1 µM [2, 7]: 44% | % Enzyme Activity Remaining (relative to DMSO controls), MLK3/MAP3K11, Data 1 [3]: 33.57% | % Enzyme Activity Remaining (relative to DMSO controls), MLK3/MAP3K11, Data 2 [3]: 32.45% | remaining activity at 0.025 µM [4]: 13.8% | remaining activity at 0.1 µM [4]: 2.9%

CN1CCN(Cc2ccc(-c3cnc4[nH]cc(-c5cnn(C)c5)c4c3)cc2)CC1 [Compound 7s, 3-(1-Methyl-1H-pyrazol-4-yl)-5-(4-((4-methylpiperazin-1-yl)methyl)phenyl)-1H-pyrrolo[2,3-b]pyridine]
EC50 [1, 5]: 2190 nM | viability at 1 µM ([1]; Homo sapiens, Neuron): 42.9% | Emax ([1]; Homo sapiens, Neuron): 100% | remaining activity at 0.1 µM [2, 6]: 94.8% | remaining activity at 0.1 µM [2, 7]: 94.3% | % Enzyme Activity Remaining (relative to DMSO controls), MLK3/MAP3K11, Data 1 [3]: 90.97% | % Enzyme Activity Remaining (relative to DMSO controls), MLK3/MAP3K11, Data 2 [3]: 90.45% | remaining activity at 0.025 µM [4]: 77.8% | remaining activity at 0.1 µM [4]: 37%

CN1CCN(Cc2ccc(-c3cnc4[nH]cc(-c5cccc(N)c5)c4c3)cc2)CC1 [Compound 7h, 3-(5-(4-((4-Methylpiperazin-1-yl)methyl)phenyl)-1H-pyrrolo[2,3-b]pyridin-3-yl)aniline]
EC50 [1, 5]: 177 nM | viability at 1 µM ([1]; Homo sapiens, Neuron): 106% | Emax ([1]; Homo sapiens, Neuron): 115% | remaining activity at 0.1 µM [2, 6]: 48.8% | remaining activity at 0.1 µM [2, 7]: 43.2% | % Enzyme Activity Remaining (relative to DMSO controls), MLK3/MAP3K11, Data 1 [3]: 62.91% | % Enzyme Activity Remaining (relative to DMSO controls), MLK3/MAP3K11, Data 2 [3]: 63.31% | remaining activity at 0.025 µM [4]: 98.8% | remaining activity at 0.1 µM [4]: 87.4%

CN1CCN(Cc2ccc(-c3cnc4[nH]cc(-c5ccc(CN6CCOCC6)s5)c4c3)cc2)CC1 [Compound 7t, 4-((5-(5-(4-((4-Methylpiperazin-1-yl)methyl)phenyl)-1H-pyrrolo[2,3-b]pyridin-3-yl)thiophen-2-yl)methyl)morpholine]
EC50 [1, 5]: 1380 nM | viability at 1 µM ([1]; Homo sapiens, Neuron): 43.6% | Emax ([1]; Homo sapiens, Neuron): 77.3% | remaining activity at 0.1 µM [2, 6]: 82.1% | remaining activity at 0.1 µM [2, 7]: 80% | % Enzyme Activity Remaining (relative to DMSO controls), MLK3/MAP3K11, Data 1 [3]: 83.49% | % Enzyme Activity Remaining (relative to DMSO controls), MLK3/MAP3K11, Data 2 [3]: 78.30% | remaining activity at 0.025 µM [4]: 74.3% | remaining activity at 0.1 µM [4]: 33.4%

Cc1ccc(C)c(-c2c[nH]c3ncc(-c4ccc(CN5CCN(C)CC5)cc4)cc23)c1 [Compound 7af, 3-(2,5-Dimethylphenyl)-5-(4-((4-methylpiperazin-1-yl)methyl)phenyl)-1H-pyrrolo[2,3-b]pyridine]
EC50 [1, 5]: 1340 nM | viability at 1 µM ([1]; Homo sapiens, Neuron): 38.6% | Emax ([1]; Homo sapiens, Neuron): 67.5% | remaining activity at 0.1 µM [2, 6]: 92.6% | remaining activity at 0.1 µM [2, 7]: 90.6% | % Enzyme Activity Remaining (relative to DMSO controls), MLK3/MAP3K11, Data 1 [3]: 75.32% | % Enzyme Activity Remaining (relative to DMSO controls), MLK3/MAP3K11, Data 2 [3]: 81.31% | remaining activity at 0.025 µM [4]: 69% | remaining activity at 0.1 µM [4]: 38.7%

CN1CCN(Cc2ccc(-c3cnc4[nH]cc(-c5ccc(C#N)cc5)c4c3)cc2)CC1 [Compound 7o, 4-(5-(4-((4-Methylpiperazin-1-yl)methyl)phenyl)-1H-pyrrolo[2,3-b]pyridin-3-yl)benzonitrile]
EC50 [1, 5]: 775 nM | viability at 1 µM ([1]; Homo sapiens, Neuron): 49.7% | Emax ([1]; Homo sapiens, Neuron): 68.6% | remaining activity at 0.1 µM [2, 6]: 93.4% | remaining activity at 0.1 µM [2, 7]: 90.7% | % Enzyme Activity Remaining (relative to DMSO controls), MLK3/MAP3K11, Data 1 [3]: 90.12% | % Enzyme Activity Remaining (relative to DMSO controls), MLK3/MAP3K11, Data 2 [3]: 92.65% | remaining activity at 0.025 µM [4]: 58.9% | remaining activity at 0.1 µM [4]: 29.3%

CN1CCN(Cc2ccc(-c3cnc4[nH]cc(-c5cccc([N+](=O)[O-])c5)c4c3)cc2)CC1 [Compound 7p, 5-(4-((4-Methylpiperazin-1-yl)methyl)phenyl)-3-(3-nitrophenyl)-1H-pyrrolo[2,3-b]pyridine]
EC50 [1, 5]: 293 nM | viability at 1 µM ([1]; Homo sapiens, Neuron): 116% | Emax ([1]; Homo sapiens, Neuron): 131% | remaining activity at 0.1 µM [2, 6]: 62.7% | remaining activity at 0.1 µM [2, 7]: 62.9% | % Enzyme Activity Remaining (relative to DMSO controls), MLK3/MAP3K11, Data 1 [3]: 40.84% | % Enzyme Activity Remaining (relative to DMSO controls), MLK3/MAP3K11, Data 2 [3]: 42.08% | remaining activity at 0.025 µM [4]: 3.92% | remaining activity at 0.1 µM [4]: 1.56%

C[C@@H](NC(=O)Nc1cccc(-c2c[nH]c3ncc(-c4ccc(CN5CCN(C)CC5)cc4)cc23)c1)c1ccccc1 [Compound 7ax, (R)-1-(3-(5-(4-((4-methylpiperazin-1-yl)methyl)phenyl)-1H-pyrrolo[2,3-b]pyridin-3-yl)phenyl)-3-(1-phenylethyl)urea]
EC50 [1, 5]: 1440 nM | viability at 1 µM ([1]; Homo sapiens, Neuron): 17.4% | Emax ([1]; Homo sapiens, Neuron): 35.5% | remaining activity at 0.1 µM [2, 6]: 93.5% | remaining activity at 0.1 µM [2, 7]: 92.3% | % Enzyme Activity Remaining (relative to DMSO controls), MLK3/MAP3K11, Data 1 [3]: 90.99% | % Enzyme Activity Remaining (relative to DMSO controls), MLK3/MAP3K11, Data 2 [3]: 86.58% | remaining activity at 0.025 µM [4]: 93.6% | remaining activity at 0.1 µM [4]: 78.7%

CN1CCN(Cc2ccc(-c3cnc4[nH]cc(-c5ccc(OC(F)(F)F)cc5)c4c3)cc2)CC1 [Compound 7z, 5-(4-((4-Methylpiperazin-1-yl)methyl)phenyl)-3-(4-(trifluoromethoxy)phenyl)-1H-pyrrolo[2,3-b]pyridine]
EC50 [1]: Ambiguous | viability at 1 µM ([1]; Homo sapiens, Neuron): 11.2% | Emax ([1]; Homo sapiens, Neuron): 12.8% | remaining activity at 0.1 µM [2, 6]: 98.6% | remaining activity at 0.1 µM [2, 7]: 99.2% | % Enzyme Activity Remaining (relative to DMSO controls), MLK3/MAP3K11, Data 1 [3]: 93.59% | % Enzyme Activity Remaining (relative to DMSO controls), MLK3/MAP3K11, Data 2 [3]: 94.16% | remaining activity at 0.025 µM [4]: 96.4% | remaining activity at 0.1 µM [4]: 67.9%

CCOc1ccc(-c2c[nH]c3ncc(-c4ccc(CN5CCN(C)CC5)cc4)cc23)cn1 [Compound 7b, 3-(6-Ethoxypyridin-3-yl)-5-(4-((4-methylpiperazin-1-yl)methyl)phenyl)-1H-pyrrolo[2,3-b]pyridine]
EC50 [1, 5]: 496 nM | viability at 1 µM ([1]; Homo sapiens, Neuron): 52.3% | Emax ([1]; Homo sapiens, Neuron): 52.3% | remaining activity at 0.1 µM [2, 6]: 89.2% | remaining activity at 0.1 µM [2, 7]: 87.8% | % Enzyme Activity Remaining (relative to DMSO controls), MLK3/MAP3K11, Data 1 [3]: 86.71% | % Enzyme Activity Remaining (relative to DMSO controls), MLK3/MAP3K11, Data 2 [3]: 86.95% | remaining activity at 0.025 µM [4]: 77.6% | remaining activity at 0.1 µM [4]: 42.8%

CN1CCN(Cc2ccc(-c3cnc4[nH]cc(-c5ccc(S(C)(=O)=O)nc5)c4c3)cc2)CC1 [Compound 7u, 5-(4-((4-Methylpiperazin-1-yl)methyl)phenyl)-3-(6-(methylsulfonyl)pyridin-3-yl)-1H-pyrrolo[2,3-b]pyridine]
EC50 [1, 5]: 4600 nM | viability at 1 µM ([1]; Homo sapiens, Neuron): 33% | Emax ([1]; Homo sapiens, Neuron): 72.9% | remaining activity at 0.1 µM [2, 6]: 93.9% | remaining activity at 0.1 µM [2, 7]: 95.9% | % Enzyme Activity Remaining (relative to DMSO controls), MLK3/MAP3K11, Data 1 [3]: 92.02% | % Enzyme Activity Remaining (relative to DMSO controls), MLK3/MAP3K11, Data 2 [3]: 90.70% | remaining activity at 0.025 µM [4]: 92.9% | remaining activity at 0.1 µM [4]: 52.3%

CNC(=O)Nc1cccc(-c2c[nH]c3ncc(-c4ccc(CN5CCN(C)CC5)cc4)cc23)c1 [Compound 7ak, 1-Methyl-3-(3-(5-(4-((4-methylpiperazin-1-yl)methyl)phenyl)-1H-pyrrolo[2,3-b]pyridin-3-yl)phenyl)urea]
EC50 [1, 5]: 650 nM | viability at 1 µM ([1]; Homo sapiens, Neuron): 78.5% | Emax ([1]; Homo sapiens, Neuron): 112% | remaining activity at 0.1 µM [2, 6]: 34.2% | remaining activity at 0.1 µM [2, 7]: 32.8% | % Enzyme Activity Remaining (relative to DMSO controls), MLK3/MAP3K11, Data 1 [3]: 48.06% | % Enzyme Activity Remaining (relative to DMSO controls), MLK3/MAP3K11, Data 2 [3]: 48.02% | remaining activity at 0.025 µM [4]: 41.7% | remaining activity at 0.1 µM [4]: 14.2%

CN1CCN(Cc2ccc(-c3cnc4[nH]cc(-c5cccc6c5oc5ccccc56)c4c3)cc2)CC1 [Compound 7c, 3-(Dibenzo[b,d]furan-4-yl)-5-(4-((4-methylpiperazin-1-yl)methyl)phenyl)-1H-pyrrolo[2,3-b]pyridine]
EC50 [1]: Ambiguous | viability at 1 µM ([1]; Homo sapiens, Neuron): 7.84% | Emax ([1]; Homo sapiens, Neuron): 10.4% | remaining activity at 0.1 µM [2, 6]: 88.3% | remaining activity at 0.1 µM [2, 7]: 86.8% | % Enzyme Activity Remaining (relative to DMSO controls), MLK3/MAP3K11, Data 1 [3]: 90.01% | % Enzyme Activity Remaining (relative to DMSO controls), MLK3/MAP3K11, Data 2 [3]: 93.44% | remaining activity at 0.025 µM [4]: 99.3% | remaining activity at 0.1 µM [4]: 81.6%

Cc1cc(-c2c[nH]c3ncc(-c4ccc(CN5CCN(C)CC5)cc4)cc23)cnc1N [Compound 7l, 3-Methyl-5-(5-(4-((4-methylpiperazin-1-yl)methyl)phenyl)-1H-pyrrolo[2,3-b]pyridin-3-yl)pyridin-2-amine]
EC50 [1, 5]: 177 nM | viability at 1 µM ([1]; Homo sapiens, Neuron): 106% | Emax ([1]; Homo sapiens, Neuron): 106% | remaining activity at 0.1 µM [2, 6]: 53.2% | remaining activity at 0.1 µM [2, 7]: 52.4% | % Enzyme Activity Remaining (relative to DMSO controls), MLK3/MAP3K11, Data 1 [3]: 58.50% | % Enzyme Activity Remaining (relative to DMSO controls), MLK3/MAP3K11, Data 2 [3]: 57.04% | remaining activity at 0.025 µM [4]: 27% | remaining activity at 0.1 µM [4]: 5.45%
